Experimental data taken from patent US20180057505A1, “BICYCLIC HETEROARYL COMPOUNDS USEFUL AS INHIBITORS OF THE PAR-2 SIGNALING PATHWAY” (VERTEX PHARMACEUTICALS INCORPORATED, priority 2015, published 2018).

What was measured:
Format in all cases: cell-based
PAR2 (HT-29 cells) [1] = molecular target: T1, PAR2 (HT-29 cells) (Homo sapiens, UniProt P55085); assay: Ca FLIPR TETRA assay, ANTAGONIST mode, activator 8 μM SLIGKV; settings: HT-29 cells, activator 8 μM SLIGKV
T1 construct: host or cells: HT-29
T1 sequence (P55085 26-397): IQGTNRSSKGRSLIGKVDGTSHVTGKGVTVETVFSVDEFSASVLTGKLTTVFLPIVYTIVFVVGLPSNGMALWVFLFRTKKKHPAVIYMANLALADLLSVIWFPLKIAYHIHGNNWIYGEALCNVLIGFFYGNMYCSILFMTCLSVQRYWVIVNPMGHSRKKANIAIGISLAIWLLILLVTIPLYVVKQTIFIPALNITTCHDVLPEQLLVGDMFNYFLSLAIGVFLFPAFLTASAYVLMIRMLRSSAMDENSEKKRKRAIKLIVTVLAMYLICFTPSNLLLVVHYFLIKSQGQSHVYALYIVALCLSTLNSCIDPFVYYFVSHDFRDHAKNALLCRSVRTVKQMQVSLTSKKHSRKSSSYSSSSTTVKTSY
Summary of the method: (§1)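 Ca2+ flux by FLIPR Tetra in HT-29 cells after 30 min r.t. compound preincubation, followed by stimulation with SLIGKV 8 μM, thrombin 1 U/mL, trypsin 3.1 U/mL or UTP 0.6 μM (final). Cells were dye-loaded with calcium 5 beforehand; compound-only responses were also read.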

PAR2 (HT-29 cells) [2] = molecular target: T1, PAR2 (HT-29 cells); assay: Ca FLIPR TETRA assay, ANTAGONIST mode, activator 3.1 U/mL trypsin; settings: for IC50: HT-29 cells, activator 3.1 U/mL trypsin
Summary of the method: as §1

[3] = tested on: Thrombin-stimulated Ca2+ response in HT-29 cells; assay: Ca FLIPR TETRA assay, ANTAGONIST mode, activator 1 U/mL Thrombin; settings: HT-29 cells, activator 1 U/mL Thrombin
Summary of the method: as §1

[4] = tested on: UTP-stimulated Ca2+ response in HT-29 cells; assay: Ca FLIPR TETRA assay, ANTAGONIST mode, activator 0.6 μM UTP; settings: HT-29 cells, activator 0.6 μM UTP
Summary of the method: as §1

[5] = maximal antagonist concentration per Method (A: 0.1, 1 or 2 μM; B: 50 μM)
[6] = Method A: maximal concentration of antagonist 0.1, 1 or 2 μM

Row | SMILES | IC50 (PAR2 (HT-29 cells) [1]; [5]) [nM] | IC50 (PAR2 (HT-29 cells) [2]; [5]) [nM] | IC50 ([3]; Homo sapiens) [nM] | IC50 ([4]; Homo sapiens) [nM] | IC50 (PAR2 (HT-29 cells) [1]; [6]) [nM] | IC50 (PAR2 (HT-29 cells) [2]; [6]) [nM] | IC50 [3] [nM] | IC50 [4] [nM] | Trypsin, % @ 50 (PAR2 (HT-29 cells) [2]; @ 50 (μM)) [% @ 50]
1 | CCC(C)(C)C(=O)N1CCN(C(=O)c2cc3nc(-c4ccc(F)cc4)cc(C4(C)CC4)c3o2)C(C)(C)C1 [Example I-52] | 4.2 | 6 | > 50000 | > 50000 | – | – | – | – | –
2 | CC(C)c1cc(-c2ccc(F)cc2)nc2sc(C(=O)N3CCN(C(=O)[C@H](O)CC(C)(C)C)CC3(C)C)nc12 [Example I-132] | 6.4 | 9 | > 50000 | > 50000 | – | – | – | – | –
3 | CCC(CC)c1cc(-c2ccc(F)cc2)nc2cc(C(=O)N3CCN(c4cn[nH]c4)C(=O)C3(C)C)oc12 [Example I-301] | – | – | > 2000 | > 2000 | 3 | 4 | – | – | –
4 | Cc1cc(C(=O)N2CCN(C(=O)c3cc4nc(C5CCC(F)(F)CC5)cc(C(C)(C)C)c4o3)C(C)(C)C2=O)[nH]n1 [Example I-223] | 13.8 | 39 | – | – | – | – | > 2000 | > 2000 | –
5 | Cc1cn[nH]c1N1CCN(C(=O)c2cc3nc(-c4ccc(F)cc4)cc(C(C)(C)C)c3o2)C(C)(C)C1=O [Example I-247] | 12 | 20 | > 2000 | > 2000 | – | – | – | – | –
6 | CC1(c2cc(-c3ccc(F)cc3)nc3cc(C(=O)N4CCN(C(=O)[C@H]5CCC(=O)O5)CC4(C)C)oc23)CC1 [Example I-33] | 94 | 64 | 3600 | 5800 | – | – | – | – | –
7 | Cc1cncnc1N1CCN(C(=O)c2cc3nc(-c4ccc(Cl)cc4)cc(C(C)(C)C)c3o2)C(C)(C)C1 [Example I-265] | 5.8 | 5.5 | > 2000 | > 2000 | – | – | – | – | –
8 | CN1CCN(C(=O)c2cc3nc(-c4ccc(Cl)c(F)c4)cc(C(C)(C)C)c3o2)C(C)(C)C1=O [Example I-241] | 1.7 | 1.6 | > 2000 | > 2000 | – | – | – | – | –
9 | Cn1cc(C(=O)O)c(C(=O)N2CCN(C(=O)c3cc4nc(C5CC6(CCC6)C5)cc(C(C)(C)C)c4o3)C(C)(C)C2)n1 [Example I-291] | 0.7 | 1.1 | > 2000 | > 2000 | – | – | – | – | –
10 | CC(C)(C)c1cc(-c2ccc(Cl)c(F)c2)nc2cc(C(=O)N3CCN(c4cc(C(=O)O)n[nH]4)C(=O)C3(C)C)oc12 [Example I-280, 5-[4-[7-tert-butyl-5-(4-chloro-3-fluoro-phenyl)furo[3,2-b]pyridine-2-carbonyl]-3,3-dimethyl-2-oxo-piperazin-1-yl]-1H-pyrazole-3-carboxylic acid] | 36 | 52.5 | > 2000 | > 2000 | – | – | – | – | –
11 | CC(C)(C(=O)O)C(=O)N1CCN(C(=O)c2cc3nc(-c4ccc(F)cc4)cc(C(C)(C)C)c3o2)C(C)(C)C1 [Example I-195] | 96 | 233 | > 1000 | > 1000 | – | – | – | – | –
12 | CC(C)c1cc(-c2ccc(F)cc2)nc2sc(C(=O)N3CCN(C(=O)[C@H](O)CC(C)(C)C)[C@@H](C)C3)nc12 [Example I-130] | 2100 | 2600 | > 35000 | 30000 | – | – | – | – | –
13 | CC(C)(C)c1cc(-c2ccc(Cl)cc2)nc2cc(C(=O)N3CCN(c4cn[nH]c4)CC3(C)C)oc12 [Example I-273] | 26 | 14 | > 2000 | > 2000 | – | – | – | – | –
14 | CCC(CC)C(=O)N1CCN(C(=O)c2cc3nc(-c4ccc(F)cc4)cc(C(C)C)c3o2)C[C@@H]1C [Example I-82] | 180 | – | > 50000 | 47000 | – | – | – | – | 70

Continued, values first:

Row | IC50 (PAR2 (HT-29 cells) [1]; [5]) [nM] | IC50 (PAR2 (HT-29 cells) [2]; [5]) [nM] | IC50 ([3]; Homo sapiens) [nM] | IC50 ([4]; Homo sapiens) [nM] | IC50 (PAR2 (HT-29 cells) [1]; [6]) [nM] | IC50 (PAR2 (HT-29 cells) [2]; [6]) [nM] | IC50 [3] [nM] | IC50 [4] [nM] | Trypsin, % @ 50 (PAR2 (HT-29 cells) [2]; @ 50 (μM)) [% @ 50] | SMILES
15 | – | – | > 2000 | > 2000 | 1.5 | 2.8 | – | – | – | CC(C)(C)c1cc(-c2ccc(Cl)cc2)nc2cc(C(=O)N3CCN(c4ccc(-c5nnn[nH]5)cn4)CC3(C)C)oc12 [Example I-531]
16 | – | – | > 2000 | > 2000 | 39 | 53 | – | – | – | CC(C)(C)c1cc(-c2ccc(Cl)cc2)nc2cc(C(=O)N3CCN(C(=O)[C@@H]4CCS(=O)(=O)N4)CC3(C)C)oc12 [Example I-474]
17 | – | – | > 2000 | > 2000 | 16 | 18 | – | – | – | Cc1ccnc(N2CCN(C(=O)c3cc4nc(-c5ccc(Cl)c(F)c5)cc(C(C)(C)C)c4o3)C(C)(C)C2)c1C(=O)O [Example I-485]
18 | – | – | > 2000 | > 2000 | 3.6 | 5 | – | – | – | CC(C)(C)c1cc(-c2ccc(Cl)cc2)nc2cc(C(=O)N3CCN(C(=O)CC4(C(=O)O)CCOCC4)CC3(C)C)oc12 [Example I-499]
19 | – | – | > 2000 | > 2000 | 1.7 | 3.5 | – | – | – | CC1(C)CCC(c2cc(C(C)(C)C)c3oc(C(=O)N4CCN(C(=O)CCCC(=O)O)CC4(C)C)cc3n2)CC1 [Example I-378]
20 | – | – | > 2000 | > 2000 | 0.4 | 0.5 | – | – | – | CC(C)(C)c1cc(-c2ccc(Cl)c(F)c2)nc2cc(C(=O)N3CCN(C(=O)[C@@H]4CCCC[C@@H]4C(=O)O)CC3(C)C)oc12 [Example I-500]
21 | – | – | > 2000 | > 2000 | 21 | 15 | – | – | – | CC(C)(C)c1cc(-c2ccc(Cl)cc2)nc2cc(C(=O)N3CCN(c4cnccn4)CC3(C)C)oc12 [Example I-402]
22 | – | – | > 2000 | > 2000 | 0.2 | 0.2 | – | – | – | CC(C)[C@@H](CC(=O)N1CCN(C(=O)c2cc3nc(C4CCC(C)(C)CC4)cc(C(C)(C)C)c3o2)C(C)(C)C1)C(=O)O [Example I-319]
23 | – | – | > 2000 | > 2000 | 3.8 | 2.8 | – | – | – | Cc1nc(C(=O)O)cnc1N1CCN(C(=O)c2cc3nc(-c4ccc(Cl)cc4)cc(C(C)(C)C)c3o2)C(C)(C)C1 [Example I-392]
24 | – | – | > 2000 | > 2000 | 41 | 67 | – | – | – | CC(C)(C)c1cc(-c2ccc(F)cc2)nc2cc(C(=O)N3CCN(N4CCNC(=O)CC4(C)C)CC3(C)C)oc12 [Example I-454]
25 | – | – | – | – | 0.3 | 0.4 | > 2000 | > 2000 | – | Cc1oc(C2CCN(C(=O)c3cc4nc(C5CCC(C)(C)CC5)cc(C(C)(C)C)c4o3)C(C)(C)C2)nc1C(=O)O (centres unmarked) [Example I-425]
26 | – | – | > 2000 | 1700 | 1.2 | 1.2 | – | – | – | CC1(C)CCC(c2cc(C(C)(C)C)c3oc(C(=O)N4CCN(C(=O)C5CC6(CC(C(=O)O)C6)C5)CC4(C)C)cc3n2)CC1 (centres unmarked) [Example I-364]
27 | – | – | 1700 | 2100 | 0.2 | 0.4 | – | – | – | CC(C)[C@H](CC(=O)N1CCN(C(=O)c2cc3nc(-c4ccc(Cl)c(F)c4)cc(C(C)(C)C)c3o2)C(C)(C)C1)C(=O)O [Example I-343]
28 | – | – | > 2000 | > 2000 | 280 | 290 | – | – | – | CC(C)(C)c1cc(-c2ccc(Cl)c(F)c2)nc2cc(C(=O)N3CCN(C(=O)CCP(C)(=O)O)CC3(C)C)oc12 [Example I-376]
29 | – | – | > 2000 | > 2000 | 190 | 230 | – | – | – | CC(C)(C)c1cc(-c2ccc(Cl)c(F)c2)nc2cc(C(=O)N3CCN(c4ccncc4C(=O)O)CC3(C)C)oc12 [Example I-491]
